Laboratory results as given in ChEMBL document CHEMBL3886578, “Pharmaceutical composition for treating diabetes” (2016).

Biological target: T1, Glycogen [starch] synthase, muscle (Homo sapiens, UniProt P13807)
T1 sequence (P13807 whole entry): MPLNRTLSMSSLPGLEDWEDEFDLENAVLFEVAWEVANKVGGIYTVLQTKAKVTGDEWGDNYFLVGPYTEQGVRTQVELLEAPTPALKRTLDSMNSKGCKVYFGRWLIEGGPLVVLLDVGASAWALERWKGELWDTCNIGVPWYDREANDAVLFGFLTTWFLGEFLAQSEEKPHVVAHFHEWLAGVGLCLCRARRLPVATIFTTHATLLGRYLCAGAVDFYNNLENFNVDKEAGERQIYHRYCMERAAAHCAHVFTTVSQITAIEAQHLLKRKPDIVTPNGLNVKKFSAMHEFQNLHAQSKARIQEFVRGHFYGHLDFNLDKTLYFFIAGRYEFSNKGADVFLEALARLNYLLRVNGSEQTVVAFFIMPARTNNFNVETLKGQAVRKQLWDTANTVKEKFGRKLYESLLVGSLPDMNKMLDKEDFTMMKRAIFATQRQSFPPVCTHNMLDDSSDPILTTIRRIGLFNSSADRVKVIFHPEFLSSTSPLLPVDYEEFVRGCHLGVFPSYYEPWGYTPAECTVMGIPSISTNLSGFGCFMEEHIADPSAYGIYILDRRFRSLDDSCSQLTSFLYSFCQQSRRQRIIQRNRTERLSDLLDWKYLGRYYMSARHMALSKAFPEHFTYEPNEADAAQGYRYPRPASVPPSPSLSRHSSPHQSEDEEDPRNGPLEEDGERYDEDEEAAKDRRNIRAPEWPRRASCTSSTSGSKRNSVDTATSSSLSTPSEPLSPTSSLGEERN
Assay: Glycogen Synthase Activity Assay: To a polystyrene 96-well plate, a solution containing 30 mM glycylglycine (pH 7.3), 40 mM KCl, 20 mM MgCl2, 9.2% DMSO containing one of the test compounds at various concentrations, and 10 mM glucose-6-phosphate (Sigma-Aldrich Corporation, G7879) was added by 12 uL/well. Next, a substrate solution containing 30 mM glycylglycine (pH 7.3), 4.3 mg/mL of glycogen (Sigma-Aldrich Corporation, G8876), 21.6 mM UDP-glucose (Sigma-Aldrich Corporation, U4625), 21.6 mM phosphoenolpyruvic acid (Sigma-Aldrich Corporation, P0564), and 4.05 mM NADH (Sigma-Aldrich Corporation, N8129) was added by 18 uL/well. Further, an enzyme solution containing 50 mM Tris-HCl (pH 8.0), 27 mM DTT (Nacalai Tesque, Inc., 14128-04), 0.2 mg/mL of bovine serum albumin, 0.17 mg/mL of the glycogen synthase, 1.5 uL of a pyruvate kinase/lactate dehydrogenase solution (Sigma-Aldrich Corporation, P0294) was added by 18 uL/well to prepare a reaction solution. After the reaction solution was incubated (at 30° C. for 25 minutes for Examples 1 to 10, at 37° C. for 20 minutes for Examples 11 to 75), the absorbance at 340 nm was measured using Benchmark Plus (Bio-Rad Laboratories, Inc.).

EC50 | Compound
780 nM | O=C(O)[C@@H]1CCCN1C(=O)c1cccc(COc2ccc(-c3cc(F)cc4c3OCC=C4)cc2)c1
100 nM | O=C(O)[C@@H]1CCCN1C(=O)c1cccc(COc2ccc(-c3cc(F)c(F)c4c3OCC=C4)cc2)c1
